Assay results as given in patent publication US8580818B2, “Combination drug containing probucol and a tetrazolylalkoxy-dihydrocarbostyril derivative with superoxide supressant effects” (Otsuka Pharmaceutical Co., Ltd., priority 2005, dated 2013).

Tests used:
[1] = test system: Otsuka Long-Evans Tokushima Fatty (OLETF) male rats; test: Urinary excretion of glucose and insulin resistance in OLETF rats on high-fat diet; assay type: in vivo; details: eleventh week; for urinary glucose, mean±SD: 0.3% Cilostazol and/or 0.5% Probucol in diet, control 186±171 mg/dl; for effect on plasma glucose: 0.3% Cilostazol or 0.5% Probucol in diet, control 162±16 mg/dl
Experimental: Otsuka Long-Evans Tokushima Fatty (OLETF) male rats (6 week olds) were divided randomly into the following four groups depending on the body weights by stratified randomized method (using SAS Software, R8.1): Immediately after the randomized grouping, high-fat diet (commercially available feed (CRF-1, manufactured by Oriental Yeast Industries Co., LTD.) supplemented with cholesterol (1.25%), sodium cholate (0.5%) and cacao butter (15%)) was administered to the mice in each group in order to promote the onset of renal disease. In the test-material administered groups, the high-fat diet combined with the test material was administered to each mouse immediately after grouping. In the eleventh week after initiation of feeding, the mice were bled from the tail vein without anesthetization, and the plasma glucose and insulin level in plasma were measured. Separately, the urine was taken, and the urinary glucose was measured. Glucose was measured by an enzymatic method using a commercially available kit for measuring glucose, and the insulin was measured by a commercially available ELISA kit. 1) In order to confirm the synergistic effects of the combination of Cilostazol and Probucol, two-way ANOVA was carried out between the control group and the Cilostazol-administered group as well as between the Probucol-administered group and two agents-administered group, and thereby the interaction was observed. 2) The effects in Cilostazol- and Probucol-administered group were compared with the effects in control group by Dunnett's test. Moreover, the effects in Cilostazol- and Probucol-administered group were compared with the effects in Cilostazol+Probucol-administered group by Dunnett's test. All tests were done by two-sided test with significant level of 5%, by means of SAS Software (SAS Institute Japan, R8.1). The data were shown by mean±SD (n).

[2] = test system: focal cerebral ischemic injury in rats; test: Focal cerebral ischemic injury in rats (transient MCA occlusion, TTC-stained infarct); assay type: in vivo, Sprague-Dawley rats; details: 2-h MCA occlusion/22-h reperfusion, oral, two times at 5 min and 4 h, cilostazol 20 mg/kg, probucol 30 mg/kg, vs vehicle, FIG. 4
Experimental: Male Sprague-Dawley rats weighing 280-320 g were anesthetized with pentobarbital sodium (20 mg/kg, i.p.), and placed on a heating pad (Homeothermic Blanket System, Harvard Apparatus, South Natick, Mass.) to maintain a constant rectal temperature (37±0.5° C.). Systemic arterial blood pressure, arterial blood gas and pH were measured before, during ischemia and after 22-h reperfusion. Focal cerebral ischemia was induced by transient occlusion of the left middle cerebral artery (MCA) as previously described (Stroke 1989; 20:84-91). Surgical nylon suture thread (3-0 in size) with the round tip was advanced from the external carotid artery into the lumen of the internal carotid artery until blocking the flow of the MCA. Two hours after MCA occlusion, reperfusion was allowed by withdrawal of the suture thread until the tip cleared the internal carotid artery. […] The TTC-stained brain slices were photographed using CCD video camera and the size of an infarct was calculated with image analysis system (Image-Pro Plus, Media Cybernetics, Maryland) and expressed as the percentage of infarcted tissue in reference to the ipsilateral hemisphere. […] Data were expressed as mean±S.E.M. The comparison of the results of hemispheric infarct areas between groups is analyzed by repeated measures analysis of variance followed by Tukey's multiple comparison tests as a post hoc comparison. […]

[3] = test system: atherosclerotic lesion in low-density lipoprotein receptor-knockout mice; test: Atherosclerosis in low-density lipoprotein receptor-knockout mice fed high cholesterol; assay type: in vivo; details: LDLR-KO mice; for area of atherosclerotic lesion (ratio of Sudan IV stained area to whole aorta), mean±SD: high-fat diet 8 weeks, control 10.1±4.7%; for inhibition of atherosclerotic lesion (in words): Cilostazol 0.3%, Probucol 0.1 and 0.5%, alone or combined, FIG. 2 and FIG. 3
Experimental: Low-density lipoprotein receptor-knockout (LDLR-KO) mice (J. Clin. Invest. 1993; 92: 883-893) (male, 9 weeks old, which was prepared by and kept in Otsuka Pharmaceutical Co, Ltd.) were used. The animals were treated by grouping in the following six groups. Prior to start the experiment, the body weight of the animals and total cholesterol were measured, and based on both data, the animals were divided into six groups in random by stratified randomization method (SAS Software, R8.1). The doses of Probucol and Cilostazol were determined based on the reports (Horm. Metab. Res. 2001; 33: 472-479, and J. Pharmacol. Exp. Ther. 2005; 313: 502-509), respectively. In control group, mice were administered with a high-fat diet [i.e. a conventional feed (CRF-1, manufactured by Oriental Yeast Industries Co., LTD.) supplemented with cholesterol (1.25%), sodium cholate (0.5%) and cacao butter (15%)] and in the test material-administered group, the mice were administered with the high-fat diet combined with Cilostazol (0.3%) and/or Probucol (0.1% or 0.5%). The high-fat diet was administered to the LDLR-KO mice (since 9 weeks old) in order to induce atherosclerosis (in control group). In the test material-administration groups, the high-fat diet mixed with test material was administered to the mice (since 9 weeks old). The mice in both groups were dissected at eighth weeks after starting the administration of the diet. The atherosclerotic lesion was evaluated by picking up whole of the aorta under ether anesthesia, exposing the inner face of aorta and staining the fats with Sudan IV. The area of the atherosclerotic lesion (containing fats/lipids) in whole of the aorta was counted by image analysis of stained area and whole area of the aorta. 1) In order to confirm the synergistic effects of the combination of Cilostazol and Probucol, two-way ANOVA was carried out between the control group and the Cilostazol-administered group as well as between the Probucol-administered group and two agents-administered group, and thereby the interaction was observed. 2) The effects in Cilostazol- and Probucol-administered group were compared with the effects in control group by Dunnett's test. Moreover, the effects in Cilostazol- and Probucol-administered group were compared with the effects in Cilostazol+Probucol-administered group by Dunnett's test. All tests were done by two-sided test with significant level of 5%, by means of SAS Software (SAS Institute Japan, R8.1). The area of atherosclerotic lesion was calculated as the ratio (%) of the area stained by Sudan IV to the area of whole aorta. The mean values±standard deviation were 10.1±4.7% in Control group, 6.6±2.6% in Cilostazol-administered group, 6.2±2.6% in 0.1% Probucol-administered group, 4.7±1.2% in 0.5% Probucol-administered group, 3.8±1.2% in Cilostazol+0.1% Probucol-administered group, and 2.9±1.5% in Cilostazol+0.5% Probucol-administered group.

| SMILES | urinary glucose, mean±SD [1] [mg/dL] | effect on plasma glucose [1] | hemispheric cerebral infarct area (in words) [2] | area of atherosclerotic lesion (ratio of Sudan IV stained area to whole aorta), mean±SD ([3]; 0.3% Cilostazol in diet) [%] | inhibition of atherosclerotic lesion (in words) [3] | area of atherosclerotic lesion (ratio of Sudan IV stained area to whole aorta), mean±SD ([3]; 0.1% Probucol in diet) [%] | area of atherosclerotic lesion (ratio of Sudan IV stained area to whole aorta), mean±SD ([3]; 0.5% Probucol in diet) [%] |
| --- | --- | --- | --- | --- | --- | --- | --- |
| O=C1CCc2cc(OCCCCc3nnnn3C3CCCCC3)ccc2N1 [Cilostazol, 6-[4-(1-cyclohexyl-1H-tetrazol-5-yl)butoxy]-3,4-dihydrocarbostyril] | 11 ± 2 | neither Cilostazol nor Probucol showed any effect | marginally reduced | 6.6±2.6 | inhibited the atherosclerotic lesion significantly | – | – |
| CC(C)(Sc1cc(C(C)(C)C)c(O)c(C(C)(C)C)c1)Sc1cc(C(C)(C)C)c(O)c(C(C)(C)C)c1 [Probucol, 4,4′-isopropylidenedithiobis[2,6-di-tert-butylphenol]] | 11 ± 3 | neither Cilostazol nor Probucol showed any effect | without effect | – | inhibited the atherosclerotic lesion significantly | 6.2±2.6 | 4.7±1.2 |
